Patent US11998539B2, “Substituted aminoquinolones as DGKalpha inhibitors for immune activation” (Bayer Aktiengesellschaft, priority 2019, dated 2024)

Molecular target: DGKα (Homo sapiens (Human), UniProt P23743)
Experiment: Human DGKα kinase activity inhibition assay (ADP-Glo)
Format: biochemical
Settings: recombinant full-length human DGKα, 55 μM ATP, 7 μM 1,2-dioleoyl-sn-glycerol, read-out: IC50 values of examples in in vitro human DGKa kinase activity inhibition assays
Procedure, shortened: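 Activity was measured as ADP production, detected by luciferase luminescence after removal of unused ATP. The enzyme was baculovirus-expressed full-length human DGKα with a C-terminal FLAG tag. The substrate was 1,2-dioleoyl-sn-glycerol in detergent micelles, and compounds came from 100× DMSO solutions.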

Sequence of DGKα (P23743 other isoform, or with tags, fused parts or gaps): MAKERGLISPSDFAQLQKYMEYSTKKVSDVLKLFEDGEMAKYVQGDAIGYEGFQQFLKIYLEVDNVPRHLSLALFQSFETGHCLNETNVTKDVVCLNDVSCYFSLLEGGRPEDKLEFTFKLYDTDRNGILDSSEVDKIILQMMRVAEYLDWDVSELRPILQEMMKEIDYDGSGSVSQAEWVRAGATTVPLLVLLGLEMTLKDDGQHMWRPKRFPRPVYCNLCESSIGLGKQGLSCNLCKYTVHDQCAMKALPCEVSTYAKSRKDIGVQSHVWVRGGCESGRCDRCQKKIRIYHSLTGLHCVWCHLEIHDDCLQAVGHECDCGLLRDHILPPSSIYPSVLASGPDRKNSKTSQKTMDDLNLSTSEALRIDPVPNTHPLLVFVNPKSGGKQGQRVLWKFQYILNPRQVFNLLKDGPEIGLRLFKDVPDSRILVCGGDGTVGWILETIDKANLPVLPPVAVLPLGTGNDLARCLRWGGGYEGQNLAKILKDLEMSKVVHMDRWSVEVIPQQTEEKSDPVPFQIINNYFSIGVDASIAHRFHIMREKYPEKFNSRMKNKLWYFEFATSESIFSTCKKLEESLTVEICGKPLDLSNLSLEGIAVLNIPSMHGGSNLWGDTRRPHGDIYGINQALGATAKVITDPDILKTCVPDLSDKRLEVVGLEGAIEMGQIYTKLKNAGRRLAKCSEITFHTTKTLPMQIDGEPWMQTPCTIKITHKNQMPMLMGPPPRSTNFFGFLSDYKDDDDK

Cc1ccc2nc(C3(C)CCN(c4c(C#N)c(=O)n(C)c5ccc(C)cc45)CC3)oc2c1 [Example 188, 1,6-dimethyl-4-[4-methyl-4-(6-methyl-1,3-benzoxazol-2-yl)piperidin-1-yl]-2-oxo-1,2-dihydroquinoline-3-carbonitrile]
IC50: 2.6 nM

Cn1c(=O)c(C#N)c(N2CCC(c3nc4cc(F)c(F)cc4o3)CC2)c2ccccc21 [Example 22, 4-[4-(5,6-difluoro-1,3-benzoxazol-2-yl)piperidin-1-yl]-1-methyl-2-oxo-1,2-dihydroquinoline-3-carbonitrile]
IC50: 6 nM

Cc1ccccc1-n1ccc(C2CCN(c3c(C#N)c(=O)n(C)c4ccccc34)CC2)n1 [Example 367, 1-methyl-4-{4-[1-(2-methylphenyl)-1H-pyrazol-3-yl]piperidin-1-yl}-2-oxo-1,2-dihydroquinoline-3-carbonitrile]
IC50: 21 nM

Cn1c(=O)c(C(N)=O)c(N2CCC(O)(c3cc4ccccc4s3)CC2)c2ccccc21 [Example 456, 4-[4-(1-benzothiophen-2-yl)-4-hydroxypiperidin-1-yl]-1-methyl-2-oxo-1,2-dihydroquinoline-3-carboxamide]
IC50: 41 nM

COc1ccc2c(c1)c(N1CCC(c3nc(-c4ccccc4C)no3)CC1)c(C#N)c(=O)n2C [Example 438, 6-methoxy-1-methyl-4-{4-[3-(2-methylphenyl)-1,2,4-oxadiazol-5-yl]piperidin-1-yl}-2-oxo-1,2-dihydroquinoline-3-carbonitrile]
IC50: 31 nM

COCCc1cccc2oc(C3CCN(c4c(C#N)c(=O)n(C)c5ccccc45)CC3)nc12 [Example 265, 4-{4-[4-(2-methoxyethyl)-1,3-benzoxazol-2-yl]piperidin-1-yl}-1-methyl-2-oxo-1,2-dihydroquinoline-3-carbonitrile]
IC50: 49 nM

Cc1ccc2c(c1)c(N1CCC(C)(c3nc4cc(C(C)C)ccc4o3)CC1)c(C#N)c(=O)n2C [Example 189, 1,6-dimethyl-4-{4-methyl-4-[5-(propan-2-yl)-1,3-benzoxazol-2-yl]piperidin-1-yl}-2-oxo-1,2-dihydroquinoline-3-carbonitrile]
IC50: 15 nM

Cc1ccc2oc(C3(C)CCN(c4c(C(N)=O)c(=O)n(C)c5ccc(N6C[C@H](O)CC6=O)cc45)CC3)nc2c1 [Example 280, 6-[(4R)-4-hydroxy-2-oxopyrrolidin-1-yl]-1-methyl-4-[4-methyl-4-(5-methyl-1,3-benzoxazol-2-yl)piperidin-1-yl]-2-oxo-1,2-dihydroquinoline-3-carboxamide]
IC50: 4740 nM

COCCOc1ccc2c(N3CCC(c4nc5cc(C)ccc5o4)CC3)c(C(N)=O)c(=O)n(C)c2c1 [Example 480, 7-(2-methoxyethoxy)-1-methyl-4-[4-(5-methyl-1 3-benzoxazol-2-yl)piperidin-1-yl]-2-oxo-1,2-dihydroquinoline-3-carboxamide]
IC50: 9.8 nM

Cc1ccc2oc(C3(C)CCN(c4c(C#N)c(=O)n(C)c5cc(C6CC(F)(F)C6)ccc45)CC3)nc2c1 [Example 252, 7-(3,3-difluorocyclobutyl)-1-methyl-4-[4-methyl-4-(5-methyl-1,3-benzoxazol-2-yl)piperidin-1-yl]-2-oxo-1,2-dihydroquinoline-3-carbonitrile]
IC50: 13 nM

Cc1ccc2cc(C3CCN(c4c(C#N)c(=O)n(C)c5ccccc45)CC3)ccc2n1 [Example 371, 1-methyl-4-[4-(2-methylquinolin-6-yl)piperidin-1-yl]-2-oxo-1,2-dihydroquinoline-3-carbonitrile]
IC50: 14 nM

Cn1c(=O)oc2cc(C3CCN(c4c(C#N)c(=O)n(C)c5ccccc45)CC3)ccc21 [Example 362, 1-methyl-4-[4-(3-methyl-2-oxo-2,3-dihydro-1,3-benzoxazol-6-yl)piperidin-1-yl]-2-oxo-1,2-dihydroquinoline-3-carbonitrile]
IC50: 106 nM

Cn1c(=O)c(C#N)c(N2CCC(c3ccc4ccncc4c3)CC2)c2ccccc21 [Example 74]
IC50: 48 nM

Cn1cc(C2CCN(c3c(C#N)c(=O)n(C)c4ccccc34)CC2)cn1 [Example 323, 1-methyl-4-[4-(1-methyl-1H-pyrazol-4-yl)piperidin-1-yl]-2-oxo-1,2-dihydroquinoline-3-carbonitrile]
IC50: 326 nM

Cc1ccc2c(c1)c(N1CCCC(c3nc4ccccc4o3)CC1)c(C#N)c(=O)n2C (stereo not drawn) [Example 204, 4-[4-(1,3-benzoxazol-2-yl)azepan-1-yl]-1,6-dimethyl-2-oxo-1,2-dihydroquinoline-3-carbonitrile]
IC50: 7 nM

Cc1ccc2oc(C3(C)CCN(c4c(C#N)c(=O)n(C)c5cc(C6COC6)ccc45)CC3)nc2c1 [Example 261, 1-methyl-4-[4-methyl-4-(5-methyl-1,3-benzoxazol-2-yl)piperidin-1-yl]-7-(oxetan-3-yl)-2-oxo-1,2-dihydroquinoline-3-carbonitrile]
IC50: 35 nM

Cc1ccc2c(c1)c(N1CCC(c3nc4ccccc4s3)CC1)c(C#N)c(=O)n2C [Example 174, 4-[4-(1,3-benzothiazol-2-yl)piperidin-1-yl]-1,6-dimethyl-2-oxo-1,2-dihydroquinoline-3-carbonitrile]
IC50: 1.7 nM

COc1cc2c(cc1Cl)c(N1CCC(c3nc4cc(C)ccc4o3)CC1)c(C#N)c(=O)n2C [Example 566, 6-chloro-7-methoxy-1-methyl-4-[4-(5-methyl-1,3-benzoxazol-2-yl)piperidin-1-yl]-2-oxo-1,2-dihydroquinoline-3-carbonitrile]
IC50: 0.3 nM

Cc1ccccc1-c1nnc(C2CCN(c3c(C(N)=O)c(=O)n(C)c4cc(O)c(Br)cc34)CC2)o1 [Example 529, 6-bromo-7-hydroxy-1-methyl-4-{4-[5-(2-methylphenyl)-1,3,4-oxadiazol-2-yl]piperidin-1-yl}-2-oxo-1,2-dihydroquinoline-3-carboxamide]
IC50: 46 nM

Cc1nc2ccc(C3CCN(c4c(C#N)c(=O)n(C)c5ccccc45)CC3)cc2o1 [Example 376, 1-methyl-4-[4-(2-methyl-1,3-benzoxazol-6-yl)piperidin-1-yl]-2-oxo-1,2-dihydroquinoline-3-carbonitrile]
IC50: 14 nM

Cc1ccc2oc(C3CCN(c4c(C#N)c(=O)n(C)c5ccc(S(C)(=O)=O)cc45)CC3)nc2c1 [Example 339, 6-(methanesulfonyl)-1-methyl-4-[4-(5-methyl-1,3-benzoxazol-2-yl)piperidin-1-yl]-2-oxo-1,2-dihydroquinoline-3-carbonitrile]
IC50: 67 nM

COc1ccc2c(c1)c(N1CCC(c3nc4cc(C)ccc4o3)CC1)c(C(N)=O)c(=O)n2C [Example 501, 6-methoxy-1-methyl-4-[4-(5-methyl-1,3-benzoxazol-2-yl)piperidin-1-yl]-2-oxo-1,2-dihydroquinoline-3-carboxamide]
IC50: 21 nM

Cn1c(=O)c(C#N)c(N2CCC(c3ccc(OCC(F)(F)F)cc3)CC2)c2ccccc21 [Example 37, 1-methyl-2-oxo-4-{4-[4-(2,2,2-trifluoroethoxy)phenyl]piperidin-1-yl}-1,2-dihydroquinoline-3-carbonitrile]
IC50: 1.1 nM

Cc1ccc2oc(C3CCN(c4c(C(N)=O)c(=O)n(C)c5cc(O)c(Br)cc45)CC3)nc2c1 [Example 511, 6-bromo-7-hydroxy-1-methyl-4-[4-(5-methyl-1,3-benzoxazol-2-yl)piperidin-1-yl]-2-oxo-1,2-dihydroquinoline-3-carboxamide]
IC50: 1.5 nM

Cn1c(=O)c(C#N)c(N2CCC(C)(c3cc4ccccc4s3)CC2)c2ccccc21 [Example 342, 4-[4-(1-benzothiophen-2-yl)-4-methylpiperidin-1-yl]-1-methyl-2-oxo-1,2-dihydroquinoline-3-carbonitrile]
IC50: 2.9 nM

COCCc1ccc2oc(C3CCN(c4c(C#N)c(=O)n(C)c5ccccc45)CC3)nc2c1 [Example 283, 4-{4-[5-(2-methoxyethyl)-1,3-benzoxazol-2-yl]piperidin-1-yl}-1-methyl-2-oxo-1,2-dihydroquinoline-3-carbonitrile]
IC50: 6.8 nM

Cc1ccc2c(c1)c(N1CCC(c3nc4cc(Cl)ccc4o3)CC1)c(C#N)c(=O)n2C [Example 185, 4-[4-(5-chloro-1,3-benzoxazol-2-yl)piperidin-1-yl]-1,6-dimethyl-2-oxo-1,2-dihydroquinoline-3-carbonitrile]
IC50: 2.9 nM

Cn1c(=O)c(C#N)c(N2CCC(O)(c3ccc(Cl)cc3)CC2)c2ccccc21 [Example 151, 4-[4-(4-chlorophenyl)-4-hydroxypiperidin-1-yl]-1-methyl-2-oxo-1,2-dihydroquinoline-3-carbonitrile]
IC50: 486 nM

Cc1ccc2oc(C3CCN(c4c(C#N)c(=O)n(C)c5ccccc45)CC3)nc2c1 [Example 5, 1-methyl-4-[4-(5-methyl-1,3-benzoxazol-2-yl)piperidin-1-yl]-2-oxo-1,2-dihydroquinoline-3-carbonitrile]
IC50: 1.6 nM

Cn1c(=O)c(C#N)c(N2CCC(F)(c3nc4ccccc4s3)CC2)c2ccccc21 [Example 16, 4-[4-(1,3-benzothiazol-2-yl)-4-fluoropiperidin-1-yl]-1-methyl-2-oxo-1,2-dihydroquinoline-3-carbonitrile]
IC50: 9.9 nM

Cc1ccc2oc(C3(C)CCN(c4c(C(N)=O)c(=O)n(C)c5ccc(C)cc45)CC3)nc2c1 [Example 198, 1,6-dimethyl-4-[4-methyl-4-(5-methyl-1,3-benzoxazol-2-yl)piperidin-1-yl]-2-oxo-1,2-dihydroquinoline-3-carboxamide]
IC50: 2.1 nM

COc1ccc(C2CCN(c3c(C#N)c(=O)n(C)c4cc(N5CCCC5=O)ccc34)CC2)cc1 [Example 96, 4-[4-(4-methoxyphenyl)piperidin-1-yl]-1-methyl-2-oxo-7-(2-oxopyrrolidin-1-yl)-1,2-dihydroquinoline-3-carbonitrile]
IC50: 20 nM

Cn1c(=O)c(C#N)c(N2CCC(c3nnc(-c4ccccc4)o3)CC2)c2cc(Br)ccc21 [Example 441, 6-bromo-1-methyl-2-oxo-4-[4-(5-phenyl-1,3,4-oxadiazol-2-yl)piperidin-1-yl]-1,2-dihydroquinoline-3-carbonitrile]
IC50: 11 nM
